This passage reports inhibition and IC50 results from patent publication US11897865B2, “ABHD12 inhibitors and methods of making and using same” (THE SCRIPPS RESEARCH INSTITUTE, priority 2018, dated 2024).

The structures appear in SMILES notation.

The first assay addresses T1, ABHD12 (Mus musculus, UniProt Q99LR1).
T1 construct: from tissue; host or cells: brain membrane proteome
T1 sequence (Q99LR1 1-398): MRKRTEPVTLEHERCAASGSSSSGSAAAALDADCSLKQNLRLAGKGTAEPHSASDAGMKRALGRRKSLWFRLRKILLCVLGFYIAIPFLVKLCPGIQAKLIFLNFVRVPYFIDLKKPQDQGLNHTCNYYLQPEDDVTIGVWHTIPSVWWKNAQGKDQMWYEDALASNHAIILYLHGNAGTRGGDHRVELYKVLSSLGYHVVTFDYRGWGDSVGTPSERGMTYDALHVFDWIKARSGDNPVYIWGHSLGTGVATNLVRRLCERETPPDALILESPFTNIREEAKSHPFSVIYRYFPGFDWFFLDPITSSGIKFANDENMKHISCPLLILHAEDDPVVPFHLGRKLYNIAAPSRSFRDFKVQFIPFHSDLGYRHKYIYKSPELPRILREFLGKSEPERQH
Nature of the assay: Gel-based competitive ABPP, JJH350 probe vs brain membrane proteome. The format is biochemical. The settings on record: 10 μM compound, read-out: % Inhibition @ 10 μM (ABPP gel_JJH350 probe vs brain mem). The method, then:
Gel-Based Competitive ABPP for In Vitro Inhibitor Treatment of Proteomes:
Gel-based ABPP assays were performed as previously reported (Bachovchin, D. A. et al. Superfamily-wide portrait of serine hydrolase inhibition achieved by library-versus-library screening. Proc. Natl. Acad. Sci. U. S. A. 2010, 107, 20941-20946). Cell or tissue proteomes (50 μL, 1 mg/mL) were treated with either FP-Rh (1 μM final concentration) or JJH350 (2 μM final concentration) for 45 min at 37° C. For FP-Rh labeled samples, the reactions were quenched by adding 20 μL of 4× SDS-PAGE loading buffer. The 30 μL of the quenched samples were loaded on gel for analysis. For (S)-1,3-dioxo-7-(4-phenoxybenzoyl)hexahydroimidazo[1,5-a]pyrazin-2(3H)-yl 4-(4-(prop-2-yn-1-yloxy)phenyl)piperazine-1-carboxylate (JJH350)-labeled samples, copper-catalyzed azide-alkyne cycloaddition (CuAAC) was used for visualizing the labeled proteins following the reported protocol. Briefly, rhodamine-PEG3-N3 (1 μL/reaction, 1.25 mM in DMSO), CuSO4 (1 μL/reaction, 50 mM in H2O), TBTA (3 μL/reaction, 1.7 mM in DMSO/t-BuOH [1:4, v/v]) and tris(2-carboxyethyi)phosphine (TCEP) (1 μL/reaction, 50 mM in H2O, freshly prepared) were premixed. 6 μL of this click reagent mixture was immediately added to each JJH350-labeled samples (50 μL, 1 mg/mL) and incubated for 1 h at room temperature. The reactions were quenched by adding 20 μL of 4× SDS-PAGE loading buffer. The 40 μL of the quenched samples were loaded on a gel for analysis.
After separation by SDS-PAGE (10% acrylamide), samples were visualized by in-gel fluorescence scanning using the ChemiDoc MP system (Bio-Rad). Band intensities were quantified using the Image Lab (5.2.1) software (Bio-Rad).
For `S=C(Nc1cccnc1)NC1CCN(c2cc(OC3CCCCC3)ccn2)CC1` [Example 30, 1-(1-(4-(Cyclohexyloxy)pyridin-2-yl)piperidin-4-yl)-3-(pyridin-3-yl)thiourea], the inhibition (as a rule, the drop in the measured response relative to a control, in per cent) at 10 µM is ≥ 75%.
In the case of `S=C(Nc1cccnc1)NC1CCN(c2cc(OCC3CC3)ccn2)CC1` [Example 31, 1-(1-(4- (Cyclopropylmethoxy)pyridin-2-yl)piperidin-4-yl)-3-(pyridin-3-yl)thiourea], the inhibition at 10 µM was ≥ 75%.
In the case of `FC(F)COc1ccnc(N2CCC(NC(=S)Nc3cccnc3)CC2)c1` [Example 32, 1-(1-(4-(2,2-Difluoroethoxy)pyridin-2-yl)piperidin-4-yl)-3-(pyridin-3-yl)thiourea], the inhibition at 10 µM lay within 50 to 75%.
On to `S=C(Nc1cccnc1)NC1CCN(c2cc(OCCC3CC3)ccn2)CC1` [Example 33, 1-(1-(4-(2-Cyclopropylethoxy)pyridin-2-yl)piperidin-4-yl)-3-(pyridin-3-yl)thiourea], for which the inhibition at 10 µM was ≥ 75%.
`FC(F)(F)CCCOc1ccnc(N2CCC(NC(=S)Nc3cccnc3)CC2)c1` [Example 34, 1-(Pyridin-3-yl)-3-(1-(4-(4,4,4-trifluorobutoxy)pyridin-2-yl)piperidin-4-yl)thiourea]: the inhibition at 10 µM is ≥ 75%.
`FC1(F)CCC(Oc2ccnc(N3CCC(NC(=S)Nc4cccnc4)CC3)c2)CC1` [Example 35, 1-(1-(4-((4,4-Difluoro-cyclohexyl)oxy)pyridin-2-yl)piperidin-4-yl)-3-(pyridin-3-yl)thiourea]: the inhibition at 10 µM was ≥ 75%.
Turning to `CC(C)OC(=O)N1CCC(Oc2ccnc(N3CCC(NC(=S)Nc4cccnc4)CC3)c2)CC1` [Example 36, Isopropyl 4-((2-(4-(3-(pyridin-3-yl)thioureido)piperidin-1-yl)pyridin-4-yl)oxy)piperidine-1-carboxylate], the inhibition at 10 µM is 50 to 75%.
The same measure, in the same setting: the same measure for `S=C(Nc1cccnc1)NC1CCN(c2cc(OCc3ccccc3)ccn2)CC1` [Example 37, 1-(1-(4-(Benzyloxy)pyridin-2-yl)piperidin-4-yl)-3-(pyridin-3-yl)thiourea]: ≥ 75%; for `Fc1ccc(COc2ccnc(N3CCC(NC(=S)Nc4cccnc4)CC3)c2)cc1` [Example 38, 1-(1-(4-((4-Fluorobenzyl)oxy)pyridin-2-yl)piperidin-4-yl)-3-(pyridin-3-yl)thiourea]: ≥ 75%.
Turning to `FC(F)(F)Oc1ccc(COc2ccnc(N3CCC(NC(=S)Nc4cccnc4)CC3)c2)cc1` [Example 39, 1-(Pyridin-3-yl)-3-(1-(4-((4-(trifluoromethoxy)benzyl)oxy)pyridin-2-yl)piperidin-4-yl)thiourea], the inhibition at 10 µM was ≥ 75%.
With `Fc1ccc(COc2ccnc(N3CCC(NC(=S)Nc4cccnc4)CC3)c2)cc1F` [Example 42, 1-(1-(4-((3,4-Difluorobenzyl)oxy)pyridin-2-yl)piperidin-4-yl)-3-(pyridin-3-yl)thiourea], the inhibition at 10 µM was ≥ 75%.
Take `Fc1cc(Cl)ccc1Oc1ccnc(N2CCC(NC(=S)Nc3cccnc3)CC2)c1` [Example 43, 1-(1-(4-(4-Chloro-2-fluorophenoxy)pyridin-2-yl)piperidin-4-yl)-3-(pyridin-3-yl)thiourea]: the inhibition at 10 µM was ≥ 75%.
On the same count and under the same terms, then `COc1ccnc(N2CCC(NC(=S)Nc3cccnc3)CC2)c1` [Example 44, 1-(1-(4-Methoxypyridin-2-yl)piperidin-4-yl)-3-(pyridin-3-yl)thiourea], with 50 to 75%; and `S=C(Nc1cccnc1)NC1CCN(c2cc(-c3ccccc3)ccn2)CC1` [Example 45, 1-(1-(4-Phenylpyridin-2-yl)piperidin-4-yl)-3-(pyridin-3-yl)thiourea], with 25 to 50%; and `COc1ccc(-c2ccnc(N3CCC(NC(=S)Nc4cccnc4)CC3)c2)cc1` [Example 46, 1-(1-(4-(4-Methoxyphenyl)pyridin-2-yl)piperidin-4-yl)-3-(pyridin-3-yl)thiourea], with 0 to 25%.
As for `Fc1ccc(-c2ccnc(N3CCC(NC(=S)Nc4cccnc4)CC3)c2)cc1` [Example 47, 1-(1-(4-(4-Fluorophenyl)pyridin-2-yl)piperidin-4-yl)-3-(pyridin-3-yl)thiourea], the inhibition at 10 µM was ≥ 75%.
With `Fc1ccc(-c2ccnc(N3CCC(NC(=S)Nc4cccnc4)CC3)c2)cc1F` [Example 48, 1-(1-(4-(3,4-Difluorophenyl)pyridin-2-yl)piperidin-4-yl)-3-(pyridin-3-yl)thiourea], the inhibition at 10 µM was ≥ 75%.
For `FC(F)(F)Oc1cccc(Oc2ccnc(N3CCC(NC(=S)Nc4cccnc4)CC3)c2)c1` [Example 49, 1-(Pyridin-3-yl)-3-(1-(4-(3-(trifluoromethoxy)phenoxy)pyridin-2-yl)piperidin-4-yl)thiourea], the inhibition at 10 µM was ≥ 75%.
With `FC(F)(F)Oc1ccccc1Oc1ccnc(N2CCC(NC(=S)Nc3cccnc3)CC2)c1` [Example 50, 1-(Pyridin-3-yl)-3-(1-(4-(2-(trifluoromethoxy)phenoxy)pyridin-2-yl)piperidin-4-yl)thiourea], the inhibition at 10 µM was ≥ 75%.
On to `FC(F)(F)c1cccc(Oc2ccnc(N3CCC(NC(=S)Nc4cccnc4)CC3)c2)c1` [Example 52, 1-(Pyridin-3-yl)-3-(1-(4-(3-(trifluoromethyl)phenoxy)pyridin-2-yl)piperidin-4-yl)thiourea], for which the inhibition at 10 µM was ≥ 75%.
Still for that read-out and setting: the same measure for `FC(F)(F)c1ccccc1Oc1ccnc(N2CCC(NC(=S)Nc3cccnc3)CC2)c1` [Example 53, 1-(Pyridin-3-yl)-3-(1-(4-(2-(trifluoromethyl)phenoxy)pyridin-2-yl)piperidin-4-yl)thiourea]: ≥ 75%; for `FC(F)(F)Oc1ccc(Oc2ccnc(N3CCC(NC(=S)Nc4cccnc4)CC3)c2)c(Cl)c1` [Example 55, 1-(1-(4-(2-Chloro-4-(trifluoromethoxy)phenoxy)pyridin-2-yl)piperidin-4-yl)-3-(pyridin-3-yl)thiourea]: ≥ 75%; for `Fc1cc(Oc2ccnc(N3CCC(NC(=S)Nc4cccnc4)CC3)c2)ccc1OC(F)(F)F` [Example 56, 1-(1-(4-(3-Fluoro-4-(trifluoromethoxy)phenoxy)pyridin-2-yl)piperidin-4-yl)-3-(pyridin-3-yl)thiourea]: ≥ 75%.
As to `Fc1ccc(OC(F)(F)F)cc1Oc1ccnc(N2CCC(NC(=S)Nc3cccnc3)CC2)c1` [Example 58, 1-(1-(4-(2-Fluoro-5-(trifluoromethoxy)phenoxy)pyridin-2-yl)piperidin-4-yl)-3-(pyridin-3-yl)thiourea], the inhibition at 10 µM is ≥ 75%.
The same measure, in the same setting: the same measure for `FC(F)(F)Oc1ccc(Oc2cc(N3CCC(NC(=S)Nc4cccnc4)CC3)nc(C(F)(F)F)c2)cc1` [Example 60, 1-(Pyridin-3-yl)-3-(1-(4-(4-(trifluoromethoxy)phenoxy)-6-(trifluoromethyl)pyridin-2-yl)piperidin-4-yl)thiourea]: 0 to 25%.
On the same count and under the same terms, the same measure for `CCCCCc1ccc(Oc2ccnc(N3CCC(NC(=S)Nc4cccnc4)CC3)c2)cc1` [Example 61, 1-(1-(4-(4-Pentylphenoxy)pyridin-2-yl)piperidin-4-yl)-3-(pyridin-3-yl)thiourea]: ≥ 75%; for `FC(F)Oc1ccc(Oc2ccnc(N3CCC(NC(=S)Nc4cccnc4)CC3)c2)cc1` [Example 62, 1-(1-(4-(4-(Difluoromethoxy)phenoxy)pyridin-2-yl)piperidin-4-yl)-3-(pyridin-3-yl)thiourea]: ≥ 75%.

The assay is the same for the next values; noted with them: read-out: IC50 (ABPP gel_JJH350 probe vs brain mem).
Regarding `S=C(Nc1cccnc1)NC1CCN(c2cc(OC3CCCCC3)ccn2)CC1` [Example 30, 1-(1-(4-(Cyclohexyloxy)pyridin-2-yl)piperidin-4-yl)-3-(pyridin-3-yl)thiourea], the IC50 – broadly, the concentration that gives 50% inhibition – lay within 1000 to 25000 nM.
On the same count and under the same terms, the same measure for `S=C(Nc1cccnc1)NC1CCN(c2cc(OCC3CC3)ccn2)CC1` [Example 31, 1-(1-(4- (Cyclopropylmethoxy)pyridin-2-yl)piperidin-4-yl)-3-(pyridin-3-yl)thiourea]: 1000 to 25000 nM; for `S=C(Nc1cccnc1)NC1CCN(c2cc(OCc3ccccc3)ccn2)CC1` [Example 37, 1-(1-(4-(Benzyloxy)pyridin-2-yl)piperidin-4-yl)-3-(pyridin-3-yl)thiourea]: 1000 to 25000 nM.
On to `COc1ccnc(N2CCC(NC(=S)Nc3cccnc3)CC2)c1` [Example 44, 1-(1-(4-Methoxypyridin-2-yl)piperidin-4-yl)-3-(pyridin-3-yl)thiourea], for which the IC50 is 1000 to 25000 nM.
Take `S=C(Nc1cccnc1)NC1CCN(c2cc(-c3ccccc3)ccn2)CC1` [Example 45, 1-(1-(4-Phenylpyridin-2-yl)piperidin-4-yl)-3-(pyridin-3-yl)thiourea]: the IC50 lay within 1000 to 25000 nM.
As for `FC(F)(F)Oc1cc(Oc2ccnc(N3CCC(NC(=S)Nc4cccnc4)CC3)c2Cl)ccc1Cl` [Example 63, 1-(1-(3-Chloro-4-(4-chloro-3-(trifluoromethoxy)phenoxy)pyridin-2-yl)piperidin-4-yl)-3-(pyridin-3-yl)thiourea], the IC50 is ≤ 100 nM.
`Fc1cc(Oc2ccnc(N3CCC(NC(=S)Nc4cccnc4)CC3)c2Cl)ccc1OC(F)(F)F` [Example 64, 1-(1-(3-Chloro-4-(3-fluoro-4-(trifluoromethoxy)phenoxy)pyridin-2-yl)piperidin-4-yl)-3-(pyridin-3-yl)thiourea]: the IC50 was ≤ 100 nM.
